EC50 and IC50 data for 18 molecules are collected here from US11634396B2 (priority 2021, dated 2023).

Assay [1] concerns the target human dOR (Homo sapiens (Human), UniProt P41143). In words: cell-based. Conditions: dOR cAMP Agonist Assay EC50, CHO Tag-lite human dOR stable cell line; forskolin.
The target in assay [2] is human mOR (Homo sapiens (Human), UniProt P35372). Put plainly: cell-based.
The target in assay [3] is kOR (OPRK1) (Homo sapiens (Human), UniProt P41145). Put plainly: KOR β-Arrestin antagonist assay (Tango OPRK1-bla U2OS cells). In kind it is cell-based. An excerpt:
KOR β-Arrestin Agonist and Antagonist assays were preformed using the Tango™ OPRK1-bla U2OS cells from Invitrogen and purchased from ThermoFisher, catalog number K1576.

Setting [4] is: CHO Tag-lite human mOR stable cell line, forskolin 4 μM and DAMGO at EC90, read-out: mOR cAMP Antagonist Assay IC50.

Where two headings read alike, the source gives them in different places. Bounds are passed on as bounds.

Chain of human mOR (P35372 whole entry): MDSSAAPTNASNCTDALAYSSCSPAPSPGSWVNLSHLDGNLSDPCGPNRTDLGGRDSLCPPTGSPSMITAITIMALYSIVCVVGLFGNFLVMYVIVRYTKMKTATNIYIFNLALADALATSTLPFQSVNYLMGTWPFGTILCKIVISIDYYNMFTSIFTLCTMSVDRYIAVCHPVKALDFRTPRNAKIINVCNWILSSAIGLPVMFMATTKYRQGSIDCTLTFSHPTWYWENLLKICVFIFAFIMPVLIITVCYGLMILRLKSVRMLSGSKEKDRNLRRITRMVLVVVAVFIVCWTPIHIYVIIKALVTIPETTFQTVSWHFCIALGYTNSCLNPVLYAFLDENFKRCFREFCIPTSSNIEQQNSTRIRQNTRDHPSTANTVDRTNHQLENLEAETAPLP
Chain of human dOR (P41143 whole entry): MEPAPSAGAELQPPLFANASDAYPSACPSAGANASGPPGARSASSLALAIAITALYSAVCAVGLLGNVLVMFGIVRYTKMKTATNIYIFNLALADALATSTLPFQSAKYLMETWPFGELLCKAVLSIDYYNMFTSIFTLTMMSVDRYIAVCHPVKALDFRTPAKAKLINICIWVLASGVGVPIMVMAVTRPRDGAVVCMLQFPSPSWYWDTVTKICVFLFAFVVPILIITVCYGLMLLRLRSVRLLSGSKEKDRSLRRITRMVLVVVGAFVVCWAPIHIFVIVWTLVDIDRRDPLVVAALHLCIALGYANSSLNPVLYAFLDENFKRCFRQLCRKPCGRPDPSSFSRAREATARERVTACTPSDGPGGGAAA
Chain of kOR (OPRK1) (P41145 whole entry): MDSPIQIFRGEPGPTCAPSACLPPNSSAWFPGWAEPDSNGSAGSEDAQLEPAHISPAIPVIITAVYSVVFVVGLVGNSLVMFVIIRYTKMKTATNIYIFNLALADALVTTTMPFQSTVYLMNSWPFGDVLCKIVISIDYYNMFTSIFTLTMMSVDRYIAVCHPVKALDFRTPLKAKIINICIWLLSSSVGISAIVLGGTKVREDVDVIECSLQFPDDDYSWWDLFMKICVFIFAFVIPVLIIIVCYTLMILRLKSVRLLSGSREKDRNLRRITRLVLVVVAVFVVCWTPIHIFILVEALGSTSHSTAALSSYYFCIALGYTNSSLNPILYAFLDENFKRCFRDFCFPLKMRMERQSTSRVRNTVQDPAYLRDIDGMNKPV

As a reminder, the EC50 is the midpoint of the concentration-response curve. Broadly, the IC50 is the midpoint of a concentration-inhibition curve. As for `Cc1cc(C(N)=O)cc(C)c1C[C@@H](CNC(=O)C[C@@H](c1ccccc1)C1(C(F)(F)F)CC1)N(C)C` [Compound 7, 4-((S)-2-(dimethylamino)-3-((S)-3-phenyl-3-(1-(trifluoromethyl)cyclopropyl)propanamido)propyl)-3,5-dimethylbenzamide], the EC50 in assay [1] was below 0.3 µM. The IC50 in assay [2] (setting [4]) is above 3 µM; in assay [3] it was below 0.3 µM.

Consider `Cc1cc(C(N)=O)cc(C)c1C[C@@H](CNC(=O)C[C@H](c1ccccc1)C1(C(F)(F)F)CC1)N(C)C` [Compound 8, 4-((S)-2-(dimethylamino)-3-((R)-3-phenyl-3-(1-(trifluoromethyl)cyclopropyl)propanamido)propyl)-3,5-dimethylbenzamide], for which, in assay [1], the EC50 was above 3 µM. In addition, the IC50 is above 3 µM in assay [2] (setting [4]) and below 0.3 µM in assay [3].

With `Cc1cc(C(N)=O)cc(C)c1C[C@@H](CNC(=O)C[C@@H](c1ccccc1)C(C)C)N(C)C` [Compound 10, 4-((S)-2-(dimethylamino)-3-((R)-4-methyl-3-phenylpentanamido)propyl)-3,5-dimethylbenzamide], the EC50 in assay [1] is above 3 µM. Besides, the IC50 in assay [2] and in assay [3] was below 0.3 µM each time.

On to `Cc1cc(C(N)=O)cc(C)c1C[C@@H](CNC(=O)C[C@@H](c1ccccc1)C1CC1)N(C)C` [Compound 11, 4-((S)-3-((R)-3-cyclopropyl-3-phenylpropanamido)-2-(dimethylamino)propyl)-3,5-dimethylbenzamide], for which the EC50 in assay [1] was above 3 µM. Besides, the IC50 in assay [2] and in assay [3] was below 0.3 µM throughout.

Consider `Cc1cc(C(N)=O)cc(C)c1C[C@@H](CNC(=O)C[C@@H](CC(C)C)c1ccccc1)N(C)C` [Compound 12, 4-[(2S)-2-(dimethylamino)-3-[(3R)-5-methyl-3-phenylhexanamido]propyl]-3,5-dimethylbenzamide], for which, in assay [1], the EC50 is above 3 µM. Besides, the IC50 in assay [2] and in assay [3] was below 0.3 µM each time.

Regarding `Cc1ccc([C@@H](CC(=O)NC[C@H](Cc2ccc(C(N)=O)c(F)c2Cl)N(C)C)C2(C(F)(F)F)CC2)cn1` [Compound 20, 3-chloro-4-((S)-2-(dimethylamino)-3-((R)-3-(6-methylpyridin-3-yl)-3-(1-(trifluoromethyl)cyclopropyl)propanamido)propyl)-2-fluorobenzamide], in assay [1], the EC50 lay in the range of 0.3 to 3 µM. Further, the IC50 in assay [2] (setting [4]) and in assay [3] was below 0.3 µM throughout.

Regarding `Cc1ncc([C@@H](CC(=O)NC[C@H](Cc2ccc(C(N)=O)c(F)c2Cl)N(C)C)C2(C(F)(F)F)CC2)cn1` [Compound 21, 3-chloro-4-[(2S)-2-(dimethylamino)-3-[(3R)-3-(2-methylpyrimidin-5-yl)-3-[1-(trifluoromethyl)cyclopropyl]propanamido]propyl]-2-fluorobenzamide], in assay [1], the EC50 was 0.3 to 3 µM. Besides, the IC50 in assay [2] and in assay [3] was below 0.3 µM each time.

Regarding `CN(C)[C@H](CNC(=O)CC(c1ncc(Cl)cn1)C1(C(F)(F)F)CC1)Cc1ccc(C(N)=O)c(F)c1` (stereo partly drawn) [Compound 73, 4-[(2S)-3-[3-(5-chloropyrimidin-2-yl)-3-[1-(trifluoromethyl)cyclopropyl]propanamido]-2-(dimethylamino)propyl]-2-fluorobenzamide], the IC50 in assay [2] and in assay [3] was below 0.3 µM in each case.

For the molecule `CN(C)[C@H](CNC(=O)CC(c1cccnc1)C1(C(F)(F)F)CC1)Cc1ccc(C(N)=O)c(F)c1` (stereo partly drawn) [Compound 74, 4-[(2S)-2-(dimethylamino)-3-[3-(pyridin-3-yl)-3-[1-(trifluoromethyl)cyclopropyl]propanamido]propyl]-2-fluorobenzamide], the IC50 is above 3 µM in assay [2] and below 0.3 µM in assay [3].

On to `Cc1ccc([C@@H](CC(=O)NC[C@H](Cc2ccc(C(N)=O)c(F)c2)N(C)C)C2(C(F)(F)F)CC2)cn1` [Compound 75, 4-[(2S)-2-(dimethylamino)-3-[(3R)-3-(6-methylpyridin-3-yl)-3-[1-(trifluoromethyl)cyclopropyl]propanamido]propyl]-2-fluorobenzamide], for which the IC50 in assay [2] and in assay [3] was below 0.3 µM each time.

Regarding `CN(C)[C@H](CNC(=O)CC(c1cncc(F)c1)C1(C(F)(F)F)CC1)Cc1ccc(C(N)=O)c(F)c1` (stereo partly drawn) [Compound 76, 4-[(2S)-2-(dimethylamino)-3-[3-(5-fluoropyridin-3-yl)-3-[1-(trifluoromethyl)cyclopropyl]propanamido]propyl]-2-fluorobenzamide], the IC50 was above 3 µM in assay [2] and below 0.3 µM in assay [3].

Take `CN(C)[C@H](CNC(=O)C[C@H](c1ccccn1)C1(C(F)(F)F)CC1)Cc1ccc(C(N)=O)cc1` [Compound 81, 4-((S)-2-(dimethylamino)-3-((S)-3-(pyridin-2-yl)-3-(1-(trifluoromethyl)cyclopropyl)propanamido)propyl)benzamide]: the IC50 in assay [2] and in assay [3] was below 0.3 µM each time.

Regarding `CN(C)[C@H](CNC(=O)C[C@@H](c1ccccn1)C1(C(F)(F)F)CC1)Cc1ccc(C(N)=O)cc1` [Compound 84, 4-[(2S)-2-(dimethylamino)-3-[(3R)-3-(pyridin-2-yl)-3-[1-(trifluoromethyl)cyclopropyl]propanamido]propyl]benzamide], the IC50 in assay [2] and in assay [3] was below 0.3 µM in each case.

As for `CN[C@H](CNC(=O)C[C@H](c1ccccc1)C1(C(F)(F)F)CC1)Cc1ccc(C(N)=O)cc1` [Compound 85, 4-[(2S)-2-(methylamino)-3-[(3R)-3-phenyl-3-[1-(trifluoromethyl)cyclopropyl]propanamido]propyl]benzamide], the IC50 in assay [2] and in assay [3] was below 0.3 µM in each case.

With `CNC(=O)c1ccc(C[C@@H](CNC(=O)CC(c2ccccn2)C2(C(F)(F)F)CC2)N(C)C)c(C)c1` (stereo partly drawn) [Compound 141, 4-((2S)-2-(dimethylamino)-3-(3-(pyridin-2-yl)-3-(1-(trifluoromethyl)cyclopropyl)propanamido)propyl)-N,3-dimethylbenzamide], the IC50 in assay [2] and in assay [3] was below 0.3 µM throughout.

For the molecule `CN(C)[C@H](CNC(=O)C[C@H](c1cccnc1)C1(C(F)(F)F)CC1)Cc1ccc(O)cc1C(F)(F)F` [Compound 255, (R)-N-((S)-2-(dimethylamino)-3-(4-hydroxy-2-(trifluoromethyl)phenyl)propyl)-3-(pyridin-3-yl)-3-(1-(trifluoromethyl)cyclopropyl) propanamide], the IC50 in assay [2] is below 0.3 µM; in assay [3], above 3 µM.

As for `COc1ccc(C(CC(=O)NC[C@H](Cc2ccc(O)cc2C)N(C)C)C2(C(F)(F)F)CC2)cn1` (stereo partly drawn) [Compound 273, N-((S)-2-(dimethylamino)-3-(4-hydroxy-2-methylphenyl)propyl)-3-(6-methoxypyridin-3-yl)-3-(1-(trifluoromethyl)cyclopropyl) propanamide], the IC50 in assay [2] and in assay [3] was below 0.3 µM throughout.

Take `Cc1cc(O)cc(C)c1C[C@@H](CNC(=O)CC(c1cccnc1)C1(C(F)(F)F)CC1)N(C)C` (stereo partly drawn) [Compound 316, N-((S)-2-(dimethylamino)-3-(4-hydroxy-2,6-dimethylphenyl)propyl)-3-(pyridin-3-yl)-3-(1-(trifluoromethyl)cyclopropyl)propanamide]: the IC50 in assay [2] and in assay [3] was below 0.3 µM each time.
